The target of the test is human TRPA1 channel (Homo sapiens (Human), UniProt O75762). As to the kind of experiment: hTRPA1 CHO Ca2+ FLIPR Tetra assay, block of cinnamaldehyde induced calcium influx. The following applies: CHO cells expressing TRPA1, Hill coefficient fixed to 1.5. It counts as cell-based. The protocol:
CHO cells expressing TRPA1 were plated into 384-well plates, incubated overnight at 37° C., and loaded with BD calcium indicator dye for 1 hr at 37° C. followed by 15 minutes at room temperature. The assay buffer was Hank's Balanced Salt Solution (HBSS) containing 20 mM HEPES (pH readjusted to 7.4) along with 0.02% BSA.
Following dye load and plate cool down, compounds were added to the cells using FLIPR Tetra. Plates were then incubated with compounds for 10 minutes or 90 minutes at room temperature prior to adding agonist. Following this incubation, about an EC50 concentration of cinnamaldehyde (75) was added to active the channels and block of cinnamaldehyde induced calcium influx was measured.
Fixing the Hill coefficient will generally reduce variability of the IC50 determination. The IC50 results were individually examined to make sure the MIN and MAX points were set correctly prior to validation of the results.

The mark [1] stands for this setting: read-out: hTRPA1 IC50 (10 min), compounds incubated 10 minutes at room temperature before cinnamaldehyde agonist.
[2] abbreviates: read-out: hTRPA1 IC50 (90 min), compounds incubated 90 minutes at room temperature before cinnamaldehyde agonist.

Where two headings read alike, the source gives them in different places.

Sequence of human TRPA1 channel (O75762 whole entry): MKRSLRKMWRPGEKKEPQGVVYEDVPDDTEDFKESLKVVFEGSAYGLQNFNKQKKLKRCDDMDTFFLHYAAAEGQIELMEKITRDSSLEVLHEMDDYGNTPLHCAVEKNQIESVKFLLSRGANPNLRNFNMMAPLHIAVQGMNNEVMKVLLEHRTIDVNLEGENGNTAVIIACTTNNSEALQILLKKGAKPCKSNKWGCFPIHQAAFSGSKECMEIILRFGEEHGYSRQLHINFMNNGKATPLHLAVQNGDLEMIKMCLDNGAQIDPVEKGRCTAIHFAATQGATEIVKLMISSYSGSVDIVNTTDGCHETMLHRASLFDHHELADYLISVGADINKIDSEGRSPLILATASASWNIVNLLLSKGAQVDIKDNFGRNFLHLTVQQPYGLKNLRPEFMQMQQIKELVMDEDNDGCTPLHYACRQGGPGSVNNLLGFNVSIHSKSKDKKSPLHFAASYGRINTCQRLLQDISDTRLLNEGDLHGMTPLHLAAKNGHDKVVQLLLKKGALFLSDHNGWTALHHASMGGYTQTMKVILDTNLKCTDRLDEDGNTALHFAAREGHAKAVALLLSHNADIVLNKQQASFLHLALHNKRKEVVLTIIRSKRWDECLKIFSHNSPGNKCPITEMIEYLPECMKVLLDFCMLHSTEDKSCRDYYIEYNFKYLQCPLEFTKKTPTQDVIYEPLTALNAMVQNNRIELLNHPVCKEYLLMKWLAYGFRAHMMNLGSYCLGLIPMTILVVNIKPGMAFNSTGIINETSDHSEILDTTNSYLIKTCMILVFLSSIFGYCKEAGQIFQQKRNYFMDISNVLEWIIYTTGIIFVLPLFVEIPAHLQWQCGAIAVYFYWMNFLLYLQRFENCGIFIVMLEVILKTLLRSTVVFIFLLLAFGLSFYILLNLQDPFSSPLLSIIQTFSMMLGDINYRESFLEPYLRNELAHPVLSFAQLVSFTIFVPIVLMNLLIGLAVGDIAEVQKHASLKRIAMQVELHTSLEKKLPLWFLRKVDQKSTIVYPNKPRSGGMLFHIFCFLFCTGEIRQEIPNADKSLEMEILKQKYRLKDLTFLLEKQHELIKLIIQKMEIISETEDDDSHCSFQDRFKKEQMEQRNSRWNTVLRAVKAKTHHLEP

In the case of `Cn1cnc2ncn(Cc3nc([C@H]4[C@@H]5CN(c6cccc(C(F)F)c6)C[C@@H]54)no3)c(=O)c21`, the IC50 under setting [1] was 64.4 nM. On to `Cn1cnc2ncn(Cc3nc([C@@H]4[C@H]5C=C(c6ccc(F)cc6)C[C@H]54)no3)c(=O)c21` [Example Compound 124, 1-((3-((1R,5R,6S)-3-(4-fluorophenyl)bicyclo[3.1.0]hex-2-en-6-yl)-1,2,4-oxadiazol-5-yl)methyl)-7-methyl-1,7-dihydro-6H-purin-6-one], for which the IC50 reads like this: under setting [1], 10.9 nM; under setting [2], 7.5 nM.

As for `Cn1cnc2nnn(Cc3nc([C@H]4[C@@H]5C=C(c6ccccc6)C[C@@H]54)no3)c(=O)c21` [Example Compound 259, 5-methyl-3-[[3-[(1S,5S,6R)-3-phenyl-6-bicyclo[3.1.0]hex-2-enyl]-1,2,4-oxadiazol-5-yl]methyl]imidazo[4,5-d]triazin-4-one], the IC50 was found to be 25.1 nM under setting [1] and 16 nM under setting [2].

As for `O=c1c2cccnc2ncn1Cc1nc([C@H]2C[C@](F)(c3ccc(F)cc3)C2)no1` [Example Compound 207, 3-((3-((1s,3s)-3-fluoro-3-(4-fluorophenyl)cyclobutyl)-1,2,4-oxadiazol-5-yl)methyl)pyrido[2,3-d]pyrimidin-4(3H)-one], the IC50 under setting [1] amounted to 95 nM. With `Cn1cnc2ncn(Cc3nc([C@H]4[C@@H]5CN(c6cccc(OC(F)(F)F)c6)C[C@@H]54)no3)c(=O)c21` [Example Compound 4, 7-methyl-1-[[3-[(1R,5S,6r)-3-(3-trifluoromethoxy)phenyl-3-azabicyclo[3.1.0]hexan-6-yl]-1,2,4-oxadiazol-5-yl]methyl]purin-6-one], under setting [1], the IC50 came out at 119 nM.

`Cn1c(NC2COC2)nc2ncn(Cc3nc([C@H]4[C@@H]5C=C(c6ccccc6)C[C@@H]54)no3)c(=O)c21` [Example Compound 243, 7-methyl-8-(oxetan-3-ylamino)-1-[[3-[(1S,5S,6R)-3-phenyl-6-bicyclo[3.1.0]hex-2-enyl]-1,2,4-oxadiazol-5-yl]methyl]purin-6-one]: the IC50 worked out at 101 nM under setting [1] and 45 nM under setting [2]. In the case of `Cn1cnc2ncn(Cc3nc([C@H]4C[C@H](c5cccc(C#N)c5)C4)no3)c(=O)c21` [Example Compound 189, 3-((1r,3r)-3-(5-((7-methyl-6-oxo-6,7-dihydro-1H-purin-1-yl)methyl)-1,2,4-oxadiazol-3-yl)cyclobutyl)benzonitrile], under setting [1], the IC50 was determined as 68.2 nM. `Cc1ccnc2ncn(Cc3nc([C@H]4C[C@H](c5ccc(OC(F)F)cc5)C4)no3)c(=O)c12`: under setting [1], the IC50 stood at 51.3 nM. As to `Cn1cnc2ncn(Cc3nc([C@H]4[C@@H]5C=C(c6ccc7ncsc7c6)C[C@@H]54)no3)c(=O)c21` [Example Compound 278, 7-methyl-1-[[3-[(1S,5S,6R)-3-(1,3-benzothiazol-6-yl)-6-bicyclo[3.1.0]hex-2-enyl]-1,2,4-oxadiazol-5-yl]methyl]purin-6-one], the half-maximal inhibitory concentration (IC50) was determined as 15.8 nM under setting [1] and 3.1 nM under setting [2].

On to `Cn1cnc2ncn(Cc3nc([C@H]4[C@@H]5CN(c6cccc(F)c6F)C[C@@H]54)no3)c(=O)c21` [Example Compound 100, 1-((3-((1R,5S,6r)-3-(2,3-difluorophenyl)-3-azabicyclo[3.1.0]hexan-6-yl)-1,2,4-oxadiazol-5-yl)methyl)-7-methyl-1,7-dihydro-6H-purin-6-one], for which the IC50 stood at 12.8 nM under setting [1] and 2.5 nM under setting [2].

With `Cn1cnc2ncn(Cc3nc([C@H]4[C@@H]5CN(c6cc(F)c(C#N)c(F)c6)C[C@@H]54)no3)c(=O)c21` [Example Compound 258, 2,6-difluoro-4-[(1S,5R)-6-[5-[(7-methyl-6-oxo-purin-1-yl)methyl]-1,2,4-oxadiazol-3-yl]-3-azabicyclo[3.1.0]hexan-3-yl]benzonitrile], the IC50 under setting [1] was determined as 78.2 nM and the IC50 under setting [2] is 18 nM.

As for `Cn1cnc2ncn(Cc3nc([C@H]4C[C@H](Oc5cccc(Cl)c5)C4)no3)c(=O)c21` [Example Compound 217, 1-((3-((1r,3r)-3-(3-chlorophenoxy)cyclobutyl)-1,2,4-oxadiazol-5-yl)methyl)-7-methyl-1,7-dihydro-6H-purin-6-one], the IC50 under setting [1] was found to be 38 nM. On to `Cn1cnc2ncn(Cc3nc([C@H]4[C@@H]5CN(c6ccnc(Cl)c6)C[C@@H]54)no3)c(=O)c21` [Example Compound 146, 1-((3-((1R,5S,6r)-3-(2-chloropyridin-4-yl)-3-azabicyclo[3.1.0]hexan-6-yl)-1,2,4-oxadiazol-5-yl)methyl)-7-methyl-1,7-dihydro-6H-purin-6-one], for which the IC50 is 460 nM under setting [1] and 100 nM under setting [2]. In the case of `Cc1ccnc2ncn(Cc3nc([C@H]4[C@@H]5Cc6ccccc6[C@@H]54)no3)c(=O)c12` (stereo in doubt) [Example Compound 15, 5-methyl-3-[[3-[rac-(1R,1 aR,6aS)-1,1a,6,6a-tetrahydrocyclopropa[a]inden-1-yl]-1,2,4-oxadiazol-5-yl]methyl]pyrido[2,3-d]pyrimidin-4-one], under “compounds incubated 10 minutes at room temperature before cinnamaldehyde agonist”, the IC50 amounted to 305 nM.

`O=c1c2cccnc2cnn1Cc1nc([C@H]2[C@@H]3CN(c4cc(F)ccn4)C[C@@H]32)no1` [Example Compound 153, 6-((3-((1R,5S,6r)-3-(4-fluoropyridin-2-yl)-3-azabicyclo[3.1.0]hexan-6-yl)-1,2,4-oxadiazol-5-yl)methyl)pyrido[2,3-d]pyridazin-5(6H)-one]: the IC50 under setting [1] was 95.7 nM and the IC50 under setting [2] stood at 60 nM. As for `Cn1cnc2ncn(Cc3nc([C@H]4[C@@H]5CN(c6cc(F)ccc6F)C[C@@H]54)no3)c(=O)c21` [Example Compound 99, 1-((3-((1R,5S,6r)-3-(2,5-difluorophenyl)-3-azabicyclo[3.1.0]hexan-6-yl)-1,2,4-oxadiazol-5-yl)methyl)-7-methyl-1,7-dihydro-6H-purin-6-one], the 50% inhibitory concentration (IC50) turned out to be 15.1 nM under setting [1] and 6.3 nM under setting [2].

`Cn1nnc2ncn(Cc3nc([C@H]4[C@@H]5C=C(c6ccccc6)C[C@@H]54)no3)c(=O)c21` [Example Compound 108, 1-methyl-6-((3-((1 S,5 S,6R)-3-phenylbicyclo[3.1.0]hex-2-en-6-yl)-1,2,4-oxadiazol-5-yl)methyl)-1,6-dihydro-7H-[1,2,3]triazolo[4,5-d]pyrimidin-7-one]: the IC50 under setting [1] is 6.12 nM and the IC50 under setting [2] was 3.1 nM.

For `O=c1c2cccnc2cnn1Cc1nc([C@H]2[C@@H]3CN(c4cccc(F)c4)C[C@@H]32)no1` [Example Compound 96, 6-((3-((1R,5S,6r)-3-(3-fluorophenyl)-3-azabicyclo[3.1.0]hexan-6-yl)-1,2,4-oxadiazol-5-yl)methyl)pyrido[2,3-d]pyridazin-5(6H)-one], the IC50 under setting [1] was 8.39 nM and the IC50 under setting [2] was 5.1 nM. Turning to `Cn1cnc2ncn(Cc3nc([C@H]4[C@@H]5C=C(c6ccc(F)cn6)C[C@@H]54)no3)c(=O)c21` [Example Compound 111, 1-((3-((1S,5S,6R)-3-(5-fluoropyridin-2-yl)bicyclo[3.1.0]hex-2-en-6-yl)-1,2,4-oxadiazol-5-yl)methyl)-7-methyl-1,7-dihydro-6H-purin-6-one], the IC50 under setting [1] was found to be 116 nM and the IC50 under setting [2] turned out to be 78 nM. On the same counts, the results for `Cn1cc(-c2cc(Cl)cc(N3C[C@@H]4[C@H](C3)[C@H]4c3noc(Cn4cnc5ncn(C)c5c4=O)n3)c2)cn1` [Example Compound 163, 1-((3-((1R,5S,6r)-3-(3-chloro-5-(1-methyl-1H-pyrazol-4-yl)phenyl)-3-azabicyclo[3.1.0]hexan-6-yl)-1,2,4-oxadidzol-5-yl)methyl)-7-methyl-1,7-dihydro-6H-purin-6-one] are 71.3 nM and 23 nM. Turning to “1-((3-((1R,5S,6r)-3-(3-fluorophenyl)-3-azabicyclo[3.1.0]hexan-6-yl)-1,2,4-oxadiazol-5-yl)methyl)-7-methyl-1,7-dihydro-6H-purin-6-one-2-d [Example Compound 89]”, under setting [1], the IC50 is 31.1 nM. For `Cc1ccnc2ncn(Cc3nc([C@H]4C[C@](F)(c5cccc(F)c5)C4)no3)c(=O)c12` [Example Compound 143, 3-((3-((1s,3s)-3-fluoro-3-(3-fluorophenyl)cyclobutyl)-1,2,4-oxadiazol-5-yl)methyl)-5-methylpyrido[2,3-d]pyrimidin-4(3H)-one], the IC50 is 33.7 nM under setting [1] and 28 nM under setting [2]. In the case of `Cn1c(NC2CCOCC2)nc2ncn(Cc3nc([C@H]4[C@@H]5C=C(c6ccccc6)C[C@@H]54)no3)c(=O)c21` [Example Compound 245, 7-methyl-1-[[3-[(1S,5S,6R)-3-phenyl-6-bicyclo[3.1.0]hex-2-enyl]-1,2,4-oxadiazol-5-yl]methyl]-8-(tetrahydropyran-4-ylamino)purin-6-one], the IC50 is, setting by setting: under setting [1], 79.9 nM; under setting [2], 43 nM.

`Cn1cnc2ncn(Cc3nc([C@@H]4[C@H]5C=C(c6ccc(F)c(F)c6F)C[C@H]54)no3)c(=O)c21` [Example Compound 242, 7-methyl-1-[[3-[(1R,5R,6S)-3-(2,3,4-trifluorophenyl)-6-bicyclo[3.1.0]hex-2-enyl]-1,2,4-oxadiazol-5-yl]methyl]purin-6-one]: the IC50 reads like this: under setting [1], 19.1 nM; under setting [2], 6.3 nM.

With `Cn1cnc2ncn(Cc3nc([C@H]4[C@@H]5CN(c6ccc(F)c(F)c6)C[C@@H]54)no3)c(=O)c21` [Example Compound 105, 1-((3-((1R,5S,6r)-3-(3,4-difluorophenyl)-3-azabicyclo[3.1.0]hexan-6-yl)-1,2,4-oxadiazol-5-yl)methyl)-7-methyl-1,7-dihydro-6H-purin-6-one], the IC50 was found to be 21.5 nM under setting [1] and 3.9 nM under setting [2].

Broadly, the IC50 is the point on the concentration scale where inhibition reaches its midpoint.

The record behind these values is US10711004B2 (Genentech, Inc., priority 2018, dated 2020).
